Laboratory results: patent publication US10251395B2, “Substituted furano-/thienocycloalkylamino-2-pyrimidine derivatives and use thereof for controlling undesired plant growth” (Bayer CropScience Aktiengesellschaft, priority 2015, dated 2019)

How the values were obtained:
Type in all cases: in vivo
Matricaria inodora = assay: Pre-emergence herbicidal effect; settings: scored visually after 3 weeks
From the text: (§1) Seeds of monocotyledonous and dicotyledonous weed plants and crop plants are laid out in wood-fiber pots in sandy loam and covered with soil. The compounds of the invention, formulated in the form of wettable powders (WP) or as emulsion concentrates (EC), are then applied to the surface of the covering soil as aqueous suspension or emulsion at a water application rate equating to 600 to 800 L/ha with addition of 0.2% wetting agent.
(§2) After the treatment, the pots are placed in a greenhouse and kept under good growth conditions for the trial plants. The damage to the test plants is scored visually after a test period of 3 weeks by comparison with untreated controls (herbicidal activity in percent (%): 100% activity=the plants have died, 0% activity=like control plants).
(§3) • ABUTH: Abutilon theophrasti ALOMY: Alopecurus myosuroides • AMARE: Amaranthus retroflexus AVEFA: Avena fatua • CYPES: Cyperus esculentus ECHCG: Echinochloa crus-galli • LOLMU: Lolium multiflorum MATIN: Matricaria inodora • PHBPU: Ipomoea purpurea POLCO: Polygonum convolvulus • SETVI: Setaria viridis STEME: Stellaria media • VERPE: Veronica persica VIOTR: Viola tricolor

Viola tricolor [1] = assay: Pre-emergence herbicidal effect; settings: scored visually after 3 weeks
From the text: as §1, §2, §3

Stellaria media [2] = assay: Pre-emergence herbicidal effect; settings: scored visually after 3 weeks
From the text: as §1, §2, §3

Amaranthus retroflexus [3] = assay: Pre-emergence herbicidal effect; settings: scored visually after 3 weeks
From the text: as §1, §2, §3

Stellaria media [4] = assay: Post-emergence herbicidal effect; settings: assessed visually after about 3 weeks vs untreated controls
From the text: (§4) • ABUTH: Abutilon theophrasti ALOMY: Alopecurus myosuroides • AMARE: Amaranthus retroflexus AVEFA: Avena fatua • CYPES: Cyperus esculentus ECHCG: Echinochloa crus-galli • LOLMU: Lolium multiflorum MATIN: Matricaria inodora • PHBPU: Ipomoea purpurea POLCO: Polygonum convolvulus • SETVI: Setaria viridis STEME: Stellaria media • VERPE: Veronica persica VIOTR: Viola tricolor Seeds of monocotyledonous and dicotyledonous weed and crop plants are laid out in sandy loam in wood-fiber pots, covered with soil and cultivated in a greenhouse under good growth conditions. 2 to 3 weeks after sowing, the test plants are treated at the one-leaf stage. The compounds of the invention, formulated in the form of wettable powders (WP) or as emulsion concentrates (EC), are then sprayed onto the green parts of the plants as aqueous suspension or emulsion at a water application rate equating to 600 to 800 L/ha with addition of 0.2% wetting agent. After the test plants have been left to stand in the greenhouse under optimal growth conditions for about 3 weeks, the action of the preparations is assessed visually in comparison to untreated controls (herbicidal action in percent (%): 100% activity=the plants have died, 0% activity=like control plants).

Abutilon theophrasti = assay: Post-emergence herbicidal effect; settings: 320 g/ha, assessed visually after about 3 weeks vs untreated controls
From the text: as §4

Veronica persica [5] = assay: Pre-emergence herbicidal effect; settings: scored visually after 3 weeks
From the text: as §1, §2, §3

Setaria viridis = assay: Pre-emergence herbicidal effect; settings: Dosage 320 g/ha, scored visually after 3 weeks
From the text: as §1, §2, §3

Viola tricolor [6] = assay: Post-emergence herbicidal effect
From the text: as §4

Veronica persica [7] = assay: Post-emergence herbicidal effect
From the text: as §4

Amaranthus retroflexus [8] = assay: Post-emergence herbicidal effect; settings: assessed visually after about 3 weeks vs untreated controls
From the text: as §4

Polygonum convolvulus = assay: Pre-emergence herbicidal effect; settings: Dosage 320 g/ha, scored visually after 3 weeks
From the text: as §1, §2, §3

Alopecurus myosuroides = assay: Pre-emergence herbicidal effect; settings: Dosage 320 g/ha, scored visually after 3 weeks
From the text: as §1, §2, §3

[9] = dosage not printed (first line of Ex. 30)
[10] = 320 g/ha, assessed visually after about 3 weeks vs untreated controls
[11] = 80 g/ha, assessed visually after about 3 weeks vs untreated controls

SMILES	MATIN pre-emergence efficacy (herbicidal activity) (Matricaria inodora; Dosage 320 g/ha) [%]	VIOTR pre-emergence efficacy (herbicidal activity) (Viola tricolor [1]; Dosage 320 g/ha) [%]	STEME pre-emergence efficacy (herbicidal activity) (Stellaria media [2]; Dosage 320 g/ha) [%]	STEME pre-emergence efficacy (herbicidal activity) (Stellaria media [2]; Dosage 80 g/ha) [%]	AMARE pre-emergence efficacy (herbicidal activity) (Amaranthus retroflexus [3]; Dosage 320 g/ha) [%]	VERPE pre-emergence efficacy (herbicidal activity) (Veronica persica [5]; Dosage 320 g/ha) [%]	VERPE pre-emergence efficacy (herbicidal activity) (Veronica persica [5]; Dosage 80 g/ha) [%]	POLCO pre-emergence efficacy (herbicidal activity) (Polygonum convolvulus) [%]	further results
Cc1sc(C)c2c1CCCC2Nc1ncc(C(F)(F)F)c(N)n1 (racemic) [compound 2]	80	100	100	–	–	–	–	–	–
Nc1nc(NC2CCCc3occc32)ncc1C(F)(F)F (racemic) [compound 7]	90	100	90	80	100	–	–	–	post-emergence efficacy STEME (Stellaria media [4]; 320 g/ha): 80%; post-emergence efficacy ABUTH (Abutilon theophrasti): 40%
COc1nc(NC2CCCc3sc(C)cc32)ncc1C(F)(F)F (racemic) [compound 10]	–	–	100	–	80	100	–	–	–
N=S(=O)(c1ccccc1)c1cnc(NC2CCCc3sccc32)nc1N (racemic) [compound 27]	100	100	100	–	100	100	–	–	MATIN pre-emergence efficacy (herbicidal activity) (Matricaria inodora; Dosage 80 g/ha): 90%
Cc1cc2c(s1)CCCC2Nc1ncc(C(=O)C(F)(F)Cl)c(N)n1 (racemic) [compound 30]	100	100	100	90	100	100	90	–	SETVI pre-emergence efficacy (herbicidal activity) (Setaria viridis): 90%; MATIN pre-emergence efficacy (herbicidal activity) (Matricaria inodora; Dosage 80 g/ha): 100%; VIOTR pre-emergence efficacy (herbicidal activity) (Viola tricolor [1]; Dosage 80 g/ha): 100%; AMARE pre-emergence efficacy (herbicidal activity) (Amaranthus retroflexus [3]; Dosage 80 g/ha): 90%; post-emergence efficacy VIOTR (Viola tricolor [6]; [9]): 90%; post-emergence efficacy VIOTR (Viola tricolor [6]; dosage not printed (second line of Ex. 30)): 80%; post-emergence efficacy VERPE (Veronica persica [7]; [9]): 80%
Cc1cc2c(s1)CCC2Nc1ncc(S(=O)(=O)NCc2ccc(F)cc2)c(N)n1 (racemic) [compound 38]	100	–	–	–	90	90	–	–	post-emergence efficacy VERPE (Veronica persica [7]; [10]): 90%; post-emergence efficacy AMARE (Amaranthus retroflexus [8]; 320 g/ha): 80%
C/C(=N/O)c1cnc(NC2CCCc3sc(Cl)cc32)nc1C (racemic) [compound 259]	–	80	100	–	–	100	–	–	SETVI pre-emergence efficacy (herbicidal activity) (Setaria viridis): 100%
Cc1cc2c(s1)CCCC2Nc1ncc(-c2cccc(F)c2)c(N)n1 (racemic) [compound 265]	100	–	100	–	–	100	100	60	post-emergence efficacy VIOTR (Viola tricolor [6]; [11]): 80%; post-emergence efficacy VIOTR (Viola tricolor [6]; [10]): 80%; post-emergence efficacy STEME (Stellaria media [4]; 80 g/ha): 60%; post-emergence efficacy STEME (Stellaria media [4]; 320 g/ha): 60%; post-emergence efficacy VERPE (Veronica persica [7]; [11]): 90%; post-emergence efficacy VERPE (Veronica persica [7]; [10]): 90%; post-emergence efficacy AMARE (Amaranthus retroflexus [8]; 80 g/ha): 80%; post-emergence efficacy AMARE (Amaranthus retroflexus [8]; 320 g/ha): 80%
Cc1cc2c(s1)CCCC2Nc1ncc(-c2cccc(Cl)c2)c(N)n1 (racemic) [compound 297]	100	90	100	80	–	100	100	–	MATIN pre-emergence efficacy (herbicidal activity) (Matricaria inodora; Dosage 80 g/ha): 90%; VIOTR pre-emergence efficacy (herbicidal activity) (Viola tricolor [1]; Dosage 80 g/ha): 70%
Cc1cc2c(s1)CCCC2Nc1nc(N)c(S(C)(=O)=O)c(C(F)(F)F)n1 (racemic) [compound 298]	100	100	100	100	100	100	100	50	VIOTR pre-emergence efficacy (herbicidal activity) (Viola tricolor [1]; Dosage 80 g/ha): 90%; ALOMY pre-emergence efficacy (herbicidal activity) (Alopecurus myosuroides): 90%; post-emergence efficacy VIOTR (Viola tricolor [6]; [11]): 80%; post-emergence efficacy VIOTR (Viola tricolor [6]; [10]): 80%; post-emergence efficacy AMARE (Amaranthus retroflexus [8]; 80 g/ha): 70%; post-emergence efficacy AMARE (Amaranthus retroflexus [8]; 320 g/ha): 90%
Cc1cc2c(s1)CCCC2Nc1nc(N)c(-c2cncc(F)c2)c(C(F)F)n1 (racemic) [compound 299]	90	100	–	–	100	–	–	–	SETVI pre-emergence efficacy (herbicidal activity) (Setaria viridis): 90%; ALOMY pre-emergence efficacy (herbicidal activity) (Alopecurus myosuroides): 100%; post-emergence efficacy VIOTR (Viola tricolor [6]; [10]): 90%
Cc1cccc(-c2c(N)nc(NC3CCCc4sc(C)cc43)nc2C(F)F)c1 (racemic) [compound 304]	–	–	100	–	–	100	100	60	–
CON=C(C)c1cnc(NC2CCCc3sccc32)nc1N (racemic) [compound 310]	–	100	90	–	–	–	–	–	–
Cc1cc2c(s1)CCCC2Nc1nc(N)c(-c2cncc(F)c2)c(C(C)F)n1 (racemic) [compound 316]	80	100	100	–	100	100	–	70	post-emergence efficacy VIOTR (Viola tricolor [6]; [10]): 80%; post-emergence efficacy VERPE (Veronica persica [7]; [10]): 100%
Cc1cc2c(s1)CCCC2Nc1nc(N)c(S(C)(=O)=O)c(C(C)F)n1 (racemic) [compound 318]	90	100	100	–	100	100	–	100	SETVI pre-emergence efficacy (herbicidal activity) (Setaria viridis): 100%
CC(=NOC(C)C)c1cnc(NC2CCCc3sc(C)cc32)nc1N (racemic) [compound 342]	100	–	100	100	–	100	100	–	ALOMY pre-emergence efficacy (herbicidal activity) (Alopecurus myosuroides): 70%
CC(=O)c1cnc(NC2CCCc3sc(Cl)cc32)nc1C (stereo not shown) [compound 303]	90	90	100	100	100	100	100	60	MATIN pre-emergence efficacy (herbicidal activity) (Matricaria inodora; Dosage 80 g/ha): 80%; VIOTR pre-emergence efficacy (herbicidal activity) (Viola tricolor [1]; Dosage 80 g/ha): 70%; AMARE pre-emergence efficacy (herbicidal activity) (Amaranthus retroflexus [3]; Dosage 80 g/ha): 100%
